Laboratory results published in patent US9890147B2 (BAYER PHARMA AKTIENGESELLSCHAFT, priority 2012, dated 2018).

Assays:
LOX-IMVI cells = test: Cell proliferation assay (alamarBlue), LOX-IMVI; type: cell-based; settings: Homo sapiens, 72 hours incubation, inhibition of cell proliferation
Protocol: (§1) In accordance with the invention, the capability of the substances to inhibit cell proliferation was determined Cell viability was determined using the alamarBlue® reagent (Invitrogen) in a Victor X3 Multilabel Reader (Perkin Elmer). The excitation wavelength was 530 nm and the emission wavelenth […].
The LOX-IMVI cells (NCI-60) were sown at a concentration of 1000 cells/well in 100 μl growth medium (RPMI1640, 10% FCS) on 96-well microtitre plates.
(§2) After an overnight incubation at 37° C., the fluorescence values (CI values) were determined. The plates were then treated with various substance dilutions (1E-5 M, 3E-6 M, 1E-6M, 3E-7 M, 1E-7 M, 3E-8 M, 1E-8 M) and incubated at 37° C. for 72 (MV4-11-, LOX-IMVI cells), 96 (MOLM-13-, B16F10-, MDA-MB-431-, Caov-3 cells), 120 (MOLP-8-, KMS-12-PE cells) or 168 (LAPC-4 cells) hours. The fluorescence values (CO values) were then determined. For the data analysis, the CI values were subtracted from the CO values and the results were compared between cells treated with different dilutions of the substance or with buffer solution only. These were used to calculate the IC 50 values (substance concentration required for 50% inhibition of cell proliferation).

KMS-12-PE cells = test: Cell proliferation assay (alamarBlue), KMS-12-PE; type: cell-based; settings: Homo sapiens, 120 hours incubation, inhibition of cell proliferation
Protocol: as §1
The KMS-12-PE cells (DSMZ, ACC 606) were sown at a concentration of 4000 cells/well in 100 μl growth medium (RPMI1640, 20% FCS) on 96-well microtitre plates.
as §2

Caov-3 cells = test: Cell proliferation assay (alamarBlue), Caov-3; type: cell-based; settings: Homo sapiens; inhibition of cell proliferation, Caov-3 (ovarian carcinoma), 96 hours
Protocol: as §1
The MDA-MB-231 cells (DSMZ, ACC 732) were sown at a concentration of 4000 cells/well in 100 μl growth medium (DMEM/Ham's F12 medium, 10% FCS) on 96-well microtitre plates. The Caov-3 cells (ATCC, HTB-75) were sown at a concentration of 2000 cells/well in 100 μl growth medium (MEM Earle's medium, 10% FCS) on 96-well microtitre plates.
as §2

MV4-11 cells = test: Cell proliferation assay (alamarBlue), MV4-11; type: cell-based; settings: Homo sapiens, 72 hours incubation, inhibition of cell proliferation
Protocol: as §1
The MV4-11 cells (ATCC, CRL 9591) were sown at a concentration of 5000 cells/well in 100 μl growth medium (RPMI1640, 10% FCS) on 96-well microtitre plates.
as §2

MOLP-8 cells = test: Cell proliferation assay (alamarBlue), MOLP-8; type: cell-based; settings: Homo sapiens, 120 hours incubation, inhibition of cell proliferation
Protocol: as §1
The MOLP-8 cells (DSMZ, ACC 569) were sown at a concentration of 4000 cells/well in 100 μl growth medium (RPMI1640, 20% FCS) on 96-well microtitre plates.
as §2

MOLM-13 cells = test: Cell proliferation assay (alamarBlue), MOLM-13; type: cell-based; settings: Homo sapiens, 96 hours incubation, inhibition of cell proliferation
Procedure, shortened: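 Cells in RPMI1640/10% FCS read by alamarBlue fluorescence (ex 530, em 590 nm) after overnight 37 °C incubation, then treated at 1E-5 to 1E-8 M for 96 h. Pre-treatment values subtracted from endpoint values and compared with buffer-only wells; IC50 is 50% proliferation inhibition.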

BRD4 (BD1) = target: T1, BRD4 (BD1) (Homo sapiens, UniProt O60885); test: Binding assay BRD4/acetylated peptide H4 (TR-FRET protein-protein interaction assay)
T1 construct: with relatively long constructs also being possible, preferably amino acids 44-168; made in house; host or cells: E. coli
Procedure, shortened: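 His6-BRD4 BD1 (aa 67-152, E. coli), usually 10 nM, with biotinylated tetra-acetylated H4 peptide in HEPES pH 7.5 buffer; 11 compound concentrations 0.1 nM–20 μM in duplicate, 10 min preincubation, 1 h at 22 °C then ≥3 h at 4 °C. TR-FRET 665/620 ratio; IC50 by 4-parameter fit.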

Row | Compound | IC50 (LOX-IMVI cells) [nM] | IC50 (KMS-12-PE cells) [nM] | IC50 (Caov-3 cells) [nM] | IC50 (MV4-11 cells) [nM] | IC50 (MOLP-8 cells) [nM] | IC50 (MOLM-13 cells) [nM] | IC50 (BRD4 (BD1)) [nM]
1 | CNC(=O)N1N=C(c2ccc(-c3cn(C)nn3)cc2)c2cc(OC)c(OC)cc2CC1C (racemic) [Example 45, (±)-7,8-dimethoxy-N,4-dimethyl-1-[4-(1-methyl-1H-1,2,3-triazol-4-yl)phenyl]-4,5-dihydro-3H-2,3-benzodiazepine-3-carboxamide] | 350 | 130 | 240 | 140 | 130 | 230 | 40
2 | CNC(=O)N1N=C(c2ccc(-c3sc(C)nc3C)cc2)c2cc(OC)c(OC)cc2CC1C (racemic) [Example 46, (±)-1-[4-(2,4-dimethylthiazol-5-yl)phenyl]-7,8-dimethoxy-N,4-dimethyl-4,5-dihydro-3H-2,3-benzodiazepine-3-carboxamide] | 370 | 120 | 280 | 110 | 160 | 190 | 30
3 | CNC(=O)N1N=C(c2ccc(-c3cccnc3C(F)(F)F)cc2)c2cc(OC)c(OC)cc2CC1C (racemic) [Example 48, (±)-7,8-dimethoxy-N,4-dimethyl-1-{4-[2-(trifluoromethyl)pyridin-3-yl]phenyl}-4,5-dihydro-3H-2,3-benzodiazepine-3-carboxamide] | 650 | 260 | 470 | 220 | 250 | 190 | 110
4 | CNC(=O)N1N=C(c2ccc(-c3c(C)nn(C)c3C)cc2)c2cc(OC)c(OC)cc2CC1C (racemic) [Example 51, (±)-7,8-dimethoxy-N,4-dimethyl-1-[4-(1,3,5-trimethyl-1H-pyrazol-4-yl)phenyl]-4,5-dihydro-3H-2,3-benzodiazepine-3-carboxamide] | 350 | 90 | 280 | 120 | 120 | 210 | 30
5 | CNC(=O)N1N=C(c2ccc(-c3cnoc3)cc2)c2cc(OC)c(OC)cc2CC1C (racemic) [Example 52, (±)-1-[4-(isoxazol-4-yl)phenyl]-7,8-dimethoxy-N-dimethyl-4,5-dihydro-3H-2,3-benzodiazepine-3-carboxamide] | 450 | 130 | 350 | 140 | 150 | 240 | 50
6 | CNC(=O)N1N=C(c2ccc(-c3cccc(NS(C)(=O)=O)c3)cc2)c2cc(OC)c(OC)cc2CC1C (racemic) [Example 71, (±)-7,8-dimethoxy-N,4-dimethyl-1-{3′-[(methylsulphonyl)amino]biphenyl-4-yl}-4,5-dihydro-3H-2,3-benzodiazepine-3-carboxamide] | 150 | 80 | 150 | 50 | 90 | 250 | 40
7 | CNC(=O)N1N=C(c2ccc(-c3cccc(C(=O)N4CCCC4)c3)cc2)c2cc(OC)c(OC)cc2CC1C (racemic) [Example 96, (±)-7,8-dimethoxy-N,4-dimethyl-1-[3′-(pyrrolidin-1-ylcarbonyl)biphenyl-4-yl]-4,5-dihydro-3H-2,3-benzodiazepine-3-carboxamide] | 220 | 70 | 170 | 70 | 90 | 250 | 40
8 | CNC(=O)N1N=C(c2ccc(N3CCN(C)CC3)cc2)c2cc(OC)c(OC)cc2CC1C (racemic) [Example 127, (±)-7,8-dimethoxy-N,4-dimethyl-1-[4-(4-methylpiperazin-1-yl)phenyl]-4,5-dihydro-3H-2,3-benzodiazepine-3-carboxamide] | 250 | 90 | 240 | 120 | 90 | 180 | 80
9 | CNC(=O)N1N=C(c2ccc(N3CCC3)cc2)c2cc(OC)c(OC)cc2CC1C (racemic) [Example 128, (±)-1-[4-(azetidin-1-yl)phenyl]-7,8-dimethoxy-N,4-dimethyl-4,5-dihydro-3H-2,3-benzodiazepine-3-carboxamide] | 390 | 100 | 320 |  | 100 | 230 | 30
10 | CNC(=O)N1N=C(c2ccc(N3CC(F)C3)cc2)c2cc(OC)c(OC)cc2CC1C (racemic) [Example 129, (±)-1-[4-(3-fluoroazetidin-1-yl)phenyl]-7,8-dimethoxy-N,4-dimethyl-4,5-dihydro-3H-2,3-benzodiazepine-3-carboxamide] | 580 | 120 | 420 | 180 | 150 | 220 | 50
11 | CNC(=O)N1N=C(c2ccc(N3CCNCC3)cc2)c2cc(OC)c(OC)cc2CC1C (racemic) [Example 131, (±)-7,8-dimethoxy-N,4-dimethyl-1-[4-(piperazin-1-yl)phenyl]-4,5-dihydro-3H-2,3-benzodiazepine-3-carboxamide] | 70 | 30 | 50 | 40 | 30 | 110 | 50
12 | CNC(=O)N1N=C(c2ccc(Cl)cc2)c2cc(OCc3cccc(C)n3)ccc2CC1C (racemic) [Example 167] |  |  |  |  | 2950 | 3240 | 310
13 | CNC(=O)N1N=C(c2ccc(-c3c(C)noc3C)cc2)c2cc(O)ccc2CC1C (racemic) [Example 168, (±)-1-[4-(3,5-Dimethylisoxazol-4-yl)phenyl]-8-hydroxy-N,4-dimethyl-4,5-dihydro-3H-2,3-benzodiazepine-3-carboxamide] |  |  |  | 220 |  | 390 | 110
14 | CNC(=O)N1N=C(c2ccc(-c3c(C)noc3C)cc2)c2cc(OCCCN3CCOCC3)ccc2CC1C (racemic) [Example 169, (±)-1-[4-(3,5-Dimethylisoxazol-4-yl)phenyl]-N,4-dimethyl-8-[3-(morpholin-4-yl)propoxy]-4,5-dihydro-3H-2,3-benzodiazepine-3-carboxamide] | 410 | 120 | 370 |  | 120 | 240 | 30
15 | CNC(=O)N1N=C(c2ccc(Cl)cc2)c2cc(-n3nc(C)cc3C)ccc2CC1C (racemic) [Example 174, (±)-1-(4-Chlorophenyl)-8-(3,5-dimethyl-1H-pyrazol-1-yl)-N,4-dimethyl-4,5-dihydro-3H-2,3-benzodiazepine-3-carboxamide] |  |  |  |  | 2030 | 2340 | 250
16 | CNC(=O)N1N=C(c2ccc(-c3sc(C)nc3C)cc2)c2cc(OC)c(OC)cc2C[C@H]1C (single isomer, unassigned) [Example 46.2] |  |  |  |  | 9470 | > 10000 | 1160
17 | CNC(=O)N1N=C(c2ccc(N3CCOCC3)cc2)c2cc(OC)c(OC)cc2C[C@@H]1C [Example 7.2, (4S)-7,8-dimethoxy-N,4-dimethyl-1-[4-(morpholin-4-yl)phenyl]-4,5-dihydro-3H-2,3-benzodiazepine-3-carboxamide] | 190 | 50 |  | 60 | 50 | 100 | 30
18 | CNC(=O)N1N=C(c2ccc(N3CC(F)C3)cc2)c2cc(OC)c(OC)cc2C[C@@H]1C [Example 129.2, (4S)-1-[4-(3-fluoroazetidin-1-yl)phenyl]-7,8-dimethoxy-N,4-dimethyl-4,5-dihydro-3H-2,3-benzodiazepine-3-carboxamide] |  |  |  |  | 80 | 150 | 20
